Data taken from patent US20240343753A1, “THERAPEUTIC COMPOUNDS” (Regents of the University of Minnesota, priority 2023, published 2024).

Legend:
[1] = test system: K562 cells; test: 5hmC dot blot in K562 cells treated with inhibitor; type: cell-based, human; conditions: 5 μM compound, 24 hours, genomic DNA dot blot, normalized to DMSO
Protocol: Cells were grown in MEM media supplemented with 10% FBS (Gibco by Life Technologies TM, #16140-071) and AntibioticAntimycotic (Gibco by Life Technologies TM, #15240062) at 37° C. under 5% CO2. Solutions of inhibitors were prepared in dimethyl sulfoxide (DMSO) were incubated with cells at the specific concentration and duration prior to collection and extraction of genomic DNA.
For cellular assays, genomic DNA was extracted using DNA Blood/Tissue Kit, denatured, and subjected to dot blotting analysis using antibody against 5hmC (Active Motif, #39769) as previously described.^22 Briefly, 2 μg of purified DNA was denatured at 100° C. and mixed 1:1 with 2M NaOAc. DNA was loaded to the membrane, washed, and blocked with 5% NFM. Primary antibody for 5-hmC was incubated overnight and detected by fluorescence. The DNA spotted membrane was then stained with 0.02% methylene blue in 0.5 M sodium acetate (pH 5.0) for DNA loading control. The same protocol was followed for in vitro assays.
K562 cells, a TET proficient leukemia model, were treated with 5 μM of respective compound for 24 hours. Genomic DNA was extracted and 5hmC levels were quantified via dot blot (FIG. 1A and FIG. 1B).

[2] = target: T1, recombinant human TET1 catalytic domain (Homo sapiens, UniProt Q8NFU7); test: In vitro TET1 activity assay, LC-MS/MS quantitation of 5hmC; type: biochemical; conditions: for reduced hmC production in comparison to DMSO control: 30 minute incubation; for TET inhibition (in words): TET1 catalytic domain, hemimethylated oligomer substrate, FIG. 2
T1 construct: enzymatically active catalytic domain of human TET1; purchased Active Motif 31417
T1 sequence (Q8NFU7 1418-2136 limits assumed): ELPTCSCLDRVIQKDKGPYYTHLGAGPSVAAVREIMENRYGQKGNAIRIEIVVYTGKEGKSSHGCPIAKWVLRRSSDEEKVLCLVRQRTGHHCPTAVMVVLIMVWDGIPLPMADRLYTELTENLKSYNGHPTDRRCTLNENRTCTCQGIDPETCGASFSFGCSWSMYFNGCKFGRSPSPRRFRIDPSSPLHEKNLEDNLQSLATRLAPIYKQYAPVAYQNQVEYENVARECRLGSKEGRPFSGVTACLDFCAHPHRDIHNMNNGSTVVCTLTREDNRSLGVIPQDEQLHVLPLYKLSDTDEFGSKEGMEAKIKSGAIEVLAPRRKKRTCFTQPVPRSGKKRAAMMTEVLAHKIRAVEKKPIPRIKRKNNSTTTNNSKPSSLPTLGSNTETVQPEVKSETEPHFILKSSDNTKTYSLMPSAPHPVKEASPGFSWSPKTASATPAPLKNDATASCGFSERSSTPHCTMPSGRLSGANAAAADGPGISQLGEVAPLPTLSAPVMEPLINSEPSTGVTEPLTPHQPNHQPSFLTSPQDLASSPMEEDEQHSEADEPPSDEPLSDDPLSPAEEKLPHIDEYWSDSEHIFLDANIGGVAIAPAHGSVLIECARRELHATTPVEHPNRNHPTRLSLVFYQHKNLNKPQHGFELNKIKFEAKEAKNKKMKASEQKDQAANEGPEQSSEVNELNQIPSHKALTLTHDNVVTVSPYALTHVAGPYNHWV
Protocol: (§1) For in vitro TET assays, 10 pmol of 16-mer hemi-methylated synthetic dsDNA oligomer designed after the Rassfla tumor suppressor gene promotor (5′-AATTAGAA[5meC]GCTCCTT3′) was incubated with 2×TET reaction buffer (50 mM HEPES [pH 7.9], 100 mM NaCl, 75 μM Fe(NH4)2(SO4)2, 2 mM ascorbate, 10 μM α-ketoglutarate, 1 mM DTT), recombinant human TET1 or TET2 catalytic domain (0.2 μg, 2.3 pmol, 115 nM) and 5% DMSO (or inhibitor in DMSO) on a 20 μL scale. Timing was achieved by withholding protein until the ‘start’ of the incubation window. Reactions were completed on a dry block at 37° C. for 30 minutes. Reactions were terminated at the ‘end’ of the incubation window by transferring reaction tubes to dry ice to snap-freeze the reaction until all replicates were completed. Upon completion, all samples were heat-inactivated at 90° C. for 10 minutes and then dried entirely in SpeedVac concentrator. Sample were then prepared for LCMS or dot blot analysis. HPLC-ESI-MS/MS quantitation of 5mC and 5hmC.
Quantitation of 5hmC is based on methodology previously described in Seiler et al., with slight modification.^21 Dried enzymatic reaction samples were reconstituted with mQ-water and spiked with 1 pmol each of 5-Methyl-2′-deoxycytidine-d3 and 5-(Hydroxymethyl)-2′deoxycytidine-d3. Nucleotide digestion enzyme mix and buffer were added per product guidelines on a 20 μL scale. Samples were digested for 60 min at 37° C. on a dry block. Following digestion, samples were filtered on nanosep 10K Omega filters. The samples were then dried entirely and resuspended in 100 μL mQ-water for offline HPLC cleanup to enrich 5hmC. An Atlantis T3 column (Waters, 4.6×150 mm, 3 μm) was eluted at a flow of 0.9 mL/min with a linear gradient previously described of 5 mM NH4CHO2 buffer, pH 4.0 (A) and MeOH (B). Fractions containing 5meC and 5hmC were collected and pooled before analysis by isotope dilution HPLC-ESI-MS/MS. Pooled samples were dried and reconstituted in 2 mM ammonium formate buffer (NH4CHO2) with a Dionex Ultimate 3000UHPLC (Thermo Fisher) interfaced with a Thermo TSQ Quantis mass spectrometer (Thermo Fisher) flowing 2 mM NH4CHO2 (A) and ACN (B) at 15 μL/min through a Zorbax SB-C18 column (Agilent, 0.5×150 mm, 3 μm) with the gradients as previously described. 5meC and 5-d3-meC eluted at 5.1 minutes while 5hmC and 5-d3-hmC eluted at 3.5 minutes. Quantitation was completed monitoring MS/MS transitions m/z 242.1 [M+H^+]→m/z 126.1 [M-deoxyribose+H^+] for 5meC, m/z 245.2 [M+H^+]→m/z 129.0 [M-deoxyribose+H^+] for 5-d3-meC, m/z 258.1 [M+H^+]→m/z 142.1 [M-deoxyribose+H^+] for 5hmC, m/z 261.1 [M+H^+]→m z 145.1 [M-deoxyribose+H^+] for 5-d3-hmC. […]
Compounds 13b and 15 were taken forward and incubated with recombinant TET1 and TET2 protein to further evaluate their potential TET inhibitory activity. The compounds 13b and 15 were taken forward and evaluated in an in vitro TET activity assay with the enzymatically active catalytic domain of human TET1 using a hemimethylated synthetic oligomer substrate. Following a 30 minute enzymatic incubation time in the presence or absence of inhibitor, the reactions were halted through denaturation, and levels of 5mC 5hmC were quantified via LCMS/MS via direct isotope dilution (Seiler, C. L., et al., Biochemistry 2018, 57 (42), 6061-6069).

[3] = target: T2, recombinant human TET2 catalytic domain (Homo sapiens, UniProt Q6N021); test: In vitro TET2 activity assay, LC-MS/MS quantitation; type: biochemical; conditions: 30 minute incubation, FIG. 3; read-out: IC50, TET2 mediated conversion of 5mC to 5hmC
T2 construct: recombinant human TET1 or TET2 catalytic domain; purchased Active Motif 31418
Protocol: as §1, with “Upon completion, all samples were heat-inactivated at 90° C. for 10 minutes and then dried entirely in SpeedVac concentrator. Sample were then prepared for LCMS or dot blot analysis.” left out
Quantitation of 5hmC is based on methodology previously described in Seiler et al., with slight modification.^21 Dried enzymatic reaction samples were reconstituted with mQ-water and spiked with 1 pmol each of 5-Methyl-2′-deoxycytidine-d3 and 5-(Hydroxymethyl)-2′deoxycytidine-d3. […] Quantitation was completed monitoring MS/MS transitions m/z 242.1 [M+H^+]→m/z 126.1 [M-deoxyribose+H^+] for 5meC, m/z 245.2 [M+H^+]→m/z 129.0 [M-deoxyribose+H^+] for 5-d3-meC, m/z 258.1 [M+H^+]→m/z 142.1 [M-deoxyribose+H^+] for 5hmC, m/z 261.1 [M+H^+]→m z 145.1 [M-deoxyribose+H^+] for 5-d3-hmC. […]

| SMILES | lowered the relative levels of 5hmC [1] [%] | reduced hmC production in comparison to DMSO control ([2]; 10 μM inhibitor) [%] | reduced hmC production in comparison to DMSO control ([2]; 100 μM inhibitor) [%] | reduced hmC production in comparison to DMSO control ([2]; 500 μM inhibitor) [%] | TET inhibition (in words) [2] | IC50 [3] [µM] |
| --- | --- | --- | --- | --- | --- | --- |
| Nc1nc(=O)n([C@H]2C[C@H](O)[C@@H](CO)O2)cc1C#CCCNC(=O)/C=C/C(=O)O [Compound 14, (E)-4-((4-(4-amino-1-((2R,4S,5R)-4-hydroxy-5-(hydroxymethyl)tetrahydrofuran-2-yl)-2-oxo-1,2-dihydropyrimidin-5-yl)but-3-yn-1-yl)amino)-4-oxobut-2-enoic acid] | 26±21 | – | – | – | – | – |
| Nc1nc(=O)n([C@H]2C[C@H](O)[C@@H](CO)O2)cc1C#CCCN(O)C(=O)CCC(=O)O [Compound 13b, 4-((4-(4-amino-1-((2R,4S,5R)-4-hydroxy-5-(hydroxymethyl)tetrahydrofuran-2-yl)-2-oxo-1,2-dihydropyrimidin-5-yl)but-3-yn-1-yl)(hydroxy)amino)-4-oxobutanoic acid] | 55±20 | 22±5 | 30±4 | 85±3 | dose-dependent TET inhibition | ~1000 |
| COC(=O)/C=C/C(=O)N(O)CCC#Cc1cn([C@H]2C[C@H](O)[C@@H](CO)O2)c(=O)nc1N [Compound 11, methyl (E)-4-((4-(4-amino-1-((2R,4S,5R)-4-hydroxy-5-(hydroxymethyl)-tetrahydrofuran-2-yl)-2-oxo-1,2-dihydropyrimidin-5-yl)but-3-yn-1-yl)(hydroxy)amino)-4-oxobut-2-enoate] | 30±8 | – | – | – | – | – |
| Nc1nc(=O)n([C@H]2C[C@H](O)[C@@H](CO)O2)cc1C#CCCN(O)C(=O)/C=C/C(=O)O [Compound 15, (E)-4-((4-(4-amino-1-((2R,4S,5R)-4-hydroxy-5-(hydroxymethyl)tetrahydrofuran-2-yl)-2-oxo-1,2-dihydropyrimidin-5-yl)but-3-yn-1-yl)(hydroxy)amino)-4-oxobut-2-enoic acid] | 47±45 | – | – | – | dose-dependent TET inhibition | – |
